# Measured values reported in patent publication US20230128402A1 (The Trustees of Princeton University, priority 2020, published 2023).
# Biological target: T1, mALDH1a3 (Mus musculus, UniProt Q9JHW9)
# T1 construct: made in house; host or cells: E. coli BL21-DE3, pET-Aldh1a3
# T1 sequence (Q9JHW9 1-512): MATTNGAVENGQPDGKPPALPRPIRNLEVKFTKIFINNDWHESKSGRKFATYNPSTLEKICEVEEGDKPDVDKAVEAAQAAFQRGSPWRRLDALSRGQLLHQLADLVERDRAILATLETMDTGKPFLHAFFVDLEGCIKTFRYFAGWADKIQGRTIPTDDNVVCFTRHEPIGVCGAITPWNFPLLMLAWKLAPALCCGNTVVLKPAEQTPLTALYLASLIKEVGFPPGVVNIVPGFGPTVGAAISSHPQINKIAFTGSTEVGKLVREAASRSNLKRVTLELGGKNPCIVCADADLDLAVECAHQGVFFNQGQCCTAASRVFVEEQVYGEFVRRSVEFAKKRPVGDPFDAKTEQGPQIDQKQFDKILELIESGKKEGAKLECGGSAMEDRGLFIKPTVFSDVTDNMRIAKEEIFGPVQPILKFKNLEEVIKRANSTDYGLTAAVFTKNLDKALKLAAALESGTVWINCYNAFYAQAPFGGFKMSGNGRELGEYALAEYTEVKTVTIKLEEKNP
# Test: Aldh1a3 enzyme inhibition assay, recombinant mALDH1a3
# Format: biochemical
# Conditions: resorufin fluorescence, 20° C.
# Description: (§1) Recombinant enzyme and inhibitor added immediately before assay. Reaction rate measured by resorufin fluorescence.
row,IC50,Compound
1,> 5000 nM,CC1(C)Cc2cc(NN3CCC(c4ccccc4)C3=O)ccc2NC1=O (stereo not shown) [Compound 106]
2,> 5000 nM,"CC1(C)Cc2cc(Nc3cccc(Cl)n3)ccc2NC1=O [Compound 122, 6-[(6-chloro-2-pyridyl)amino]-3,3-dimethyl-1,4-dihydroquinolin-2-one]"
3,250 to 1000 nM,"CCc1cccnc1C(=O)Nc1cc2c(cc1Cl)NC(=O)CC2 [Compound 72, N-(7-chloro-2-oxo-3,4-dihydro-1H-quinolin-6-yl)-3-ethyl-pyridine-2-carboxamide]"
4,100 to 250 nM,"CC1(C)Cc2cc(Nc3cnc4ccccc4n3)ccc2NC1=O [Compound 92, 3,3-dimethyl-6-(quinoxalin-2-ylamino)-1,4-dihydroquinolin-2-one]"
5,1000 to 5000 nM,"Cc1cnccc1/C=C/c1ccc2c(c1)CCC(=O)N2 [Compound 30, 6-[(E)-2-(3-methyl-4-pyridyl)vinyl]-3,4-dihydro-1H-quinolin-2-one]"
6,250 to 1000 nM,"CC1(C)Cc2cc(Nc3ccc4ccccc4n3)c(F)cc2NC1=O [Compound 48, 7-fluoro-3,3-dimethyl-6-(2-quinolylamino)-1,4-dihydroquinolin-2-one]"
7,250 to 1000 nM,"CCc1cnccc1C(=O)Nc1cc2c(cc1Cl)NC(=O)CC2 [Compound 70, N-(7-chloro-2-oxo-3,4-dihydro-1H-quinolin-6-yl)-3-ethyl-pyridine-4-carboxamide]"
8,< 100 nM,"Cc1cccc2nc(Nc3ccc4c(c3)CCC(=O)N4)ccc12 [Compound 87, 6-[(5-methyl-2-quinolyl)amino]-3,4-dihydro-1H-quinolin-2-one]"
9,1000 to 5000 nM,"CCc1cnccc1C(=O)Nc1ccc2c(c1)CC(C)(C)C(=O)N2 [Compound 18, N-(3,3-dimethyl-2-oxo-1,4-dihydroquinolin-6-yl)-3-ethyl-pyridine-4-carboxamide]"
10,250 to 1000 nM,"CCc1cnccc1C(=O)Nc1ccc2c(c1)C(C)CC(=O)N2 (stereo not shown) [Compound 64, 3-ethyl-N-(4-methyl-2-oxo-3,4-dihydro-1H-quinolin-6-yl)pyridine-4-carboxamide]"
11,> 5000 nM,Cc1cc(C(=O)Nc2ccc3c(c2)CC2(CC2)C(=O)N3)c(Cl)cn1 [Compound 68]
12,100 to 250 nM,"O=C1CCc2cc(NC(=O)c3ccnc4ccccc34)ccc2N1 [Compound 52, N-(2-oxo-3,4-dihydro-1H-quinolin-6-yl)quinoline-4-carboxamide]"
13,> 5000 nM,"O=C1CCc2cc(Nc3nccc4ccccc34)ccc2N1 [Compound 22, 6-(1-isoquinolylamino)-3,4-dihydro-1H-quinolin-2-one]"
14,> 5000 nM,Cc1cccc2ccc(Nc3ccc4c(c3)CC(C)(C)C(=O)N4)nc12 [Compound 111]
15,> 5000 nM,"N#Cc1ccc2ccc(Nc3ccc4c(c3)CCC(=O)N4)nc2c1 [Compound 90, 2-[(2-oxo-3,4-dihydro-1H-quinolin-6-yl)amino]quinoline-7-carbonitrile]"
16,> 5000 nM,"CC1(C)Cc2cc(Nc3ccc4cnccc4c3)ccc2NC1=O [Compound 103, 6-(6-isoquinolylamino)-3,3-dimethyl-1,4-dihydroquinolin-2-one]"
17,> 5000 nM,Cc1cnccc1C(=O)Nc1ccc2c(c1)CCC(=O)N2 [Compound 21]
18,> 5000 nM,"CC1(C)Cc2cc(Nc3ccc4ccncc4n3)ccc2NC1=O [Compound 94, 3,3-dimethyl-6-(1,7-naphthyridin-2-ylamino)-1,4-dihydroquinolin-2-one]"
19,> 5000 nM,"CC1(C)Cc2cc(Nc3cc(Cl)c(Cl)cn3)ccc2NC1=O [Compound 125, 6-[(4,5-dichloro-2-pyridyl)amino]-3,3-dimethyl-1,4-dihydroquinolin-2-one]"
20,250 to 1000 nM,"Cc1nc(Nc2ccc3c(c2)CC(C)(C)C(=O)N3)nc2ccccc12 [Compound 132, 3,3-dimethyl-6-[(4-methylquinazolin-2-yl)amino]-1,4-dihydroquinolin-2-one]"

# Biological target: T2, ALDH1a3 (Homo sapiens, UniProt P47895)
# T2 sequence (P47895 1-512): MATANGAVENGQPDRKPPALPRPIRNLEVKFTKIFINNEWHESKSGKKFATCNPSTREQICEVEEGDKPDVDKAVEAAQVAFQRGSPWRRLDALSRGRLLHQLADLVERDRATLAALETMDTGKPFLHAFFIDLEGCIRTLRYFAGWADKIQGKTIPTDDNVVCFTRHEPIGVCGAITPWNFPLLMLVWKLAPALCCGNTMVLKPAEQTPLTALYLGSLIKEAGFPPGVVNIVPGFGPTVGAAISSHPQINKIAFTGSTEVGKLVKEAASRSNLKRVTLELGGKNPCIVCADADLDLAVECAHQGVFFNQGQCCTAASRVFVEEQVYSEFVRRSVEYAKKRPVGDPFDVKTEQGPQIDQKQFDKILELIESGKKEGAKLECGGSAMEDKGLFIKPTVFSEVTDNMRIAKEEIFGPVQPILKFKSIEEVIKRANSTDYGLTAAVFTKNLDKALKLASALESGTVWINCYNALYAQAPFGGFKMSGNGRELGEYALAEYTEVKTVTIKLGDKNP
# Test: Aldh1a3 enzyme inhibition assay, recombinant hALDH1a3
# Format: biochemical
# Parameters: made in house; host or cells: E. coli BL21-DE3, pET-Aldh1a3
# Conditions: resorufin fluorescence, 20° C.
# Description: as §1
row,IC50,Compound
1,> 5000 nM,CC1(C)Cc2cc(NN3CCC(c4ccccc4)C3=O)ccc2NC1=O (stereo not shown) [Compound 106]
2,> 5000 nM,"CC1(C)Cc2cc(Nc3cccc(Cl)n3)ccc2NC1=O [Compound 122, 6-[(6-chloro-2-pyridyl)amino]-3,3-dimethyl-1,4-dihydroquinolin-2-one]"
3,250 to 1000 nM,"CCc1cccnc1C(=O)Nc1cc2c(cc1Cl)NC(=O)CC2 [Compound 72, N-(7-chloro-2-oxo-3,4-dihydro-1H-quinolin-6-yl)-3-ethyl-pyridine-2-carboxamide]"
4,100 to 250 nM,"CC1(C)Cc2cc(Nc3cnc4ccccc4n3)ccc2NC1=O [Compound 92, 3,3-dimethyl-6-(quinoxalin-2-ylamino)-1,4-dihydroquinolin-2-one]"
5,> 5000 nM,"Cc1cnccc1/C=C/c1ccc2c(c1)CCC(=O)N2 [Compound 30, 6-[(E)-2-(3-methyl-4-pyridyl)vinyl]-3,4-dihydro-1H-quinolin-2-one]"
6,250 to 1000 nM,"CC1(C)Cc2cc(Nc3ccc4ccccc4n3)c(F)cc2NC1=O [Compound 48, 7-fluoro-3,3-dimethyl-6-(2-quinolylamino)-1,4-dihydroquinolin-2-one]"
7,< 100 nM,"CCc1cnccc1C(=O)Nc1cc2c(cc1Cl)NC(=O)CC2 [Compound 70, N-(7-chloro-2-oxo-3,4-dihydro-1H-quinolin-6-yl)-3-ethyl-pyridine-4-carboxamide]"
8,250 to 1000 nM,"Cc1cccc2nc(Nc3ccc4c(c3)CCC(=O)N4)ccc12 [Compound 87, 6-[(5-methyl-2-quinolyl)amino]-3,4-dihydro-1H-quinolin-2-one]"
9,100 to 250 nM,"CCc1cnccc1C(=O)Nc1ccc2c(c1)CC(C)(C)C(=O)N2 [Compound 18, N-(3,3-dimethyl-2-oxo-1,4-dihydroquinolin-6-yl)-3-ethyl-pyridine-4-carboxamide]"
10,100 to 250 nM,"CCc1cnccc1C(=O)Nc1ccc2c(c1)C(C)CC(=O)N2 (stereo not shown) [Compound 64, 3-ethyl-N-(4-methyl-2-oxo-3,4-dihydro-1H-quinolin-6-yl)pyridine-4-carboxamide]"
11,1000 to 5000 nM,Cc1cc(C(=O)Nc2ccc3c(c2)CC2(CC2)C(=O)N3)c(Cl)cn1 [Compound 68]
12,250 to 1000 nM,"O=C1CCc2cc(NC(=O)c3ccnc4ccccc34)ccc2N1 [Compound 52, N-(2-oxo-3,4-dihydro-1H-quinolin-6-yl)quinoline-4-carboxamide]"
13,> 5000 nM,"O=C1CCc2cc(Nc3nccc4ccccc34)ccc2N1 [Compound 22, 6-(1-isoquinolylamino)-3,4-dihydro-1H-quinolin-2-one]"
14,> 5000 nM,Cc1cccc2ccc(Nc3ccc4c(c3)CC(C)(C)C(=O)N4)nc12 [Compound 111]
15,> 5000 nM,"N#Cc1ccc2ccc(Nc3ccc4c(c3)CCC(=O)N4)nc2c1 [Compound 90, 2-[(2-oxo-3,4-dihydro-1H-quinolin-6-yl)amino]quinoline-7-carbonitrile]"
16,> 5000 nM,"CC1(C)Cc2cc(Nc3ccc4cnccc4c3)ccc2NC1=O [Compound 103, 6-(6-isoquinolylamino)-3,3-dimethyl-1,4-dihydroquinolin-2-one]"
17,> 5000 nM,Cc1cnccc1C(=O)Nc1ccc2c(c1)CCC(=O)N2 [Compound 21]
18,1000 to 5000 nM,"CC1(C)Cc2cc(Nc3ccc4ccncc4n3)ccc2NC1=O [Compound 94, 3,3-dimethyl-6-(1,7-naphthyridin-2-ylamino)-1,4-dihydroquinolin-2-one]"
19,250 to 1000 nM,"CC1(C)Cc2cc(Nc3cc(Cl)c(Cl)cn3)ccc2NC1=O [Compound 125, 6-[(4,5-dichloro-2-pyridyl)amino]-3,3-dimethyl-1,4-dihydroquinolin-2-one]"
20,250 to 1000 nM,"Cc1nc(Nc2ccc3c(c2)CC(C)(C)C(=O)N3)nc2ccccc12 [Compound 132, 3,3-dimethyl-6-[(4-methylquinazolin-2-yl)amino]-1,4-dihydroquinolin-2-one]"
